Tested on: 885724-159-R-J1-PDC complex spheroid viability
Test: Anticancer human tumor 885724-159-R-J1-PDC patient-derived pancreatic adenocarcinoma cell line growth inhibition [POLQ]
Details: for IC50: curve of first compound; for viability, T/C: stronger effect = lower value
Outline: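 Patient-derived tumour cells were co-cultured with HUVEC and mesenchymal stem cells as multicellular spheroids at 37 °C. They were treated with POLQ inhibitors (novobiocin, ART-558, RP6685) alone or combined with other agents. Top concentrations were at or near clinical Cmax (otherwise 10 microM; SN-38 at 1 microM), decreasing in half-log steps.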

[1] = second compound 0.0316 µM, first compound 0.0316 µM
[2] = second compound 0.0316 µM, first compound 0.1 µM
[3] = second compound 0.0316 µM, first compound 0.316 µM
[4] = second compound 0.0316 µM, first compound 1 µM
[5] = second compound 0.0316 µM, first compound 3.16 µM
[6] = second compound 0.0316 µM, first compound 10 µM
[7] = second compound 0.1 µM, first compound 0.0316 µM
[8] = second compound 0.1 µM, first compound 0.1 µM
[9] = second compound 0.1 µM, first compound 0.316 µM
[10] = second compound 0.1 µM, first compound 1 µM
[11] = second compound 0.1 µM, first compound 3.16 µM
[12] = second compound 0.1 µM, first compound 10 µM
[13] = second compound 0.316 µM, first compound 0.0316 µM
[14] = second compound 0.316 µM, first compound 0.1 µM
[15] = second compound 0.316 µM, first compound 0.316 µM
[16] = second compound 0.316 µM, first compound 1 µM
[17] = second compound 0.316 µM, first compound 3.16 µM
[18] = second compound 0.316 µM, first compound 10 µM
[19] = second compound 1 µM, first compound 0.0316 µM
[20] = second compound 1 µM, first compound 0.1 µM
[21] = second compound 1 µM, first compound 0.316 µM
[22] = second compound 1 µM, first compound 1 µM
[23] = second compound 1 µM, first compound 3.16 µM
[24] = second compound 1 µM, first compound 10 µM
[25] = second compound 3.16 µM, first compound 0.0316 µM
[26] = second compound 3.16 µM, first compound 0.1 µM
[27] = second compound 3.16 µM, first compound 0.316 µM
[28] = second compound 3.16 µM, first compound 1 µM
[29] = second compound 3.16 µM, first compound 3.16 µM
[30] = second compound 3.16 µM, first compound 10 µM
[31] = second compound 10 µM, first compound 0.0316 µM
[32] = second compound 10 µM, first compound 0.1 µM
[33] = second compound 10 µM, first compound 0.316 µM
[34] = second compound 10 µM, first compound 1 µM
[35] = second compound 10 µM, first compound 3.16 µM
[36] = second compound 10 µM, first compound 10 µM
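Further: spheroids exposed to compounds for 7 days.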

CC(C)n1c(=O)n(C)c2cnc3cc(F)c(-c4ccc(OCCCN5CCCCC5)nc4)cc3c21 + Nc1ccc(C#CCN(C(=O)Cc2ncc(C(F)(F)F)cc2C(F)(F)F)c2ccc(F)cc2)nn1
IC50 (second compound 0.0316 µM): > 10 µM | IC50 (second compound 0.1 µM): > 10 µM | IC50 (second compound 0.316 µM): > 10 µM | IC50 (second compound 1 µM): > 10 µM | IC50 (second compound 3.16 µM): > 10 µM | IC50 (second compound 10 µM): > 10 µM | viability, T/C [1]: 103% | viability, T/C [2]: 103% | viability, T/C [3]: 101% | viability, T/C [4]: 98.2% | viability, T/C [5]: 85.3% | viability, T/C [6]: 81.5% | viability, T/C [7]: 104% | viability, T/C [8]: 94.9% | viability, T/C [9]: 98% | viability, T/C [10]: 98.9% | viability, T/C [11]: 98.9% | viability, T/C [12]: 93.7% | viability, T/C [13]: 104% | viability, T/C [14]: 102% | viability, T/C [15]: 96.3% | viability, T/C [16]: 94.5% | viability, T/C [17]: 94% | viability, T/C [18]: 87.7% | viability, T/C [19]: 111% | viability, T/C [20]: 104% | viability, T/C [21]: 96.8% | viability, T/C [22]: 97.8% | viability, T/C [23]: 97% | viability, T/C [24]: 84.9% | viability, T/C [25]: 98.4% | viability, T/C [26]: 104% | viability, T/C [27]: 98.1% | viability, T/C [28]: 101% | viability, T/C [29]: 90% | viability, T/C [30]: 92.1% | viability, T/C [31]: 106% | viability, T/C [32]: 97.4% | viability, T/C [33]: 108% | viability, T/C [34]: 103% | viability, T/C [35]: 90.7% | viability, T/C [36]: 73.7%

CCc1c2c(nc3ccc(O)cc13)-c1cc3c(c(=O)n1C2)COC(=O)[C@]3(O)CC + Nc1ccc(C#CCN(C(=O)Cc2ncc(C(F)(F)F)cc2C(F)(F)F)c2ccc(F)cc2)nn1
IC50 (second compound 0.0316 µM): 0.0919 µM | IC50 (second compound 0.1 µM): 0.0559 µM | IC50 (second compound 0.316 µM): 0.0458 µM | IC50 (second compound 1 µM): 0.0818 µM | IC50 (second compound 3.16 µM): 0.059 µM | IC50 (second compound 10 µM): 0.12 µM | viability, T/C (second compound 0.0316 µM, first compound 0.00316 µM): 73.5% | viability, T/C (second compound 0.0316 µM, first compound 0.01 µM): 60.1% | viability, T/C [1]: 58% | viability, T/C [2]: 51.4% | viability, T/C [3]: 33.5% | viability, T/C [4]: 5.95% | viability, T/C (second compound 0.1 µM, first compound 0.00316 µM): 82.2% | viability, T/C (second compound 0.1 µM, first compound 0.01 µM): 63.5% | viability, T/C [7]: 52.3% | viability, T/C [8]: 48.1% | viability, T/C [9]: 33.2% | viability, T/C [10]: 6.65% | viability, T/C (second compound 0.316 µM, first compound 0.00316 µM): 83.1% | viability, T/C (second compound 0.316 µM, first compound 0.01 µM): 63.6% | viability, T/C [13]: 48.1% | viability, T/C [14]: 46.1% | viability, T/C [15]: 32.7% | viability, T/C [16]: 6.56% | viability, T/C (second compound 1 µM, first compound 0.00316 µM): 76.3% | viability, T/C (second compound 1 µM, first compound 0.01 µM): 63% | viability, T/C [19]: 49% | viability, T/C [20]: 51.4% | viability, T/C [21]: 37.7% | viability, T/C [22]: 5.34% | viability, T/C (second compound 3.16 µM, first compound 0.00316 µM): 78.8% | viability, T/C (second compound 3.16 µM, first compound 0.01 µM): 65.1% | viability, T/C [25]: 51.4% | viability, T/C [26]: 47.2% | viability, T/C [27]: 34.6% | viability, T/C [28]: 5.06% | viability, T/C (second compound 10 µM, first compound 0.00316 µM): 72.8% | viability, T/C (second compound 10 µM, first compound 0.01 µM): 58.6% | viability, T/C [31]: 53.6% | viability, T/C [32]: 55.1% | viability, T/C [33]: 39.3% | viability, T/C [34]: 5.13%

CCc1cc2c(N3CCc4c(cc(Cn5ccnc5)cc4-c4cn(C)nc4C(F)(F)F)C3=O)ccnc2c(OC)n1 + Nc1ccc(C#CCN(C(=O)Cc2ncc(C(F)(F)F)cc2C(F)(F)F)c2ccc(F)cc2)nn1
IC50 (second compound 0.0316 µM): > 10 µM | IC50 (second compound 0.1 µM): > 10 µM | IC50 (second compound 0.316 µM): > 10 µM | IC50 (second compound 1 µM): > 10 µM | IC50 (second compound 3.16 µM): > 10 µM | IC50 (second compound 10 µM): > 10 µM | viability, T/C [1]: 81.6% | viability, T/C [2]: 85.8% | viability, T/C [3]: 90.6% | viability, T/C [4]: 90% | viability, T/C [5]: 73.5% | viability, T/C [6]: 64.4% | viability, T/C [7]: 78.7% | viability, T/C [8]: 81.9% | viability, T/C [9]: 79.6% | viability, T/C [10]: 84.7% | viability, T/C [11]: 86.6% | viability, T/C [12]: 67.6% | viability, T/C [13]: 86.5% | viability, T/C [14]: 86.6% | viability, T/C [15]: 85.7% | viability, T/C [16]: 80% | viability, T/C [17]: 83.8% | viability, T/C [18]: 69.8% | viability, T/C [19]: 88.9% | viability, T/C [20]: 74.2% | viability, T/C [21]: 78.5% | viability, T/C [22]: 80.8% | viability, T/C [23]: 80.1% | viability, T/C [24]: 70.8% | viability, T/C [25]: 85.6% | viability, T/C [26]: 74.2% | viability, T/C [27]: 77% | viability, T/C [28]: 81.4% | viability, T/C [29]: 79.5% | viability, T/C [30]: 68.1% | viability, T/C [31]: 90.7% | viability, T/C [32]: 80.7% | viability, T/C [33]: 82.2% | viability, T/C [34]: 83.8% | viability, T/C [35]: 81.5% | viability, T/C [36]: 68.3%

COc1cc2cc(C(=O)CCC(=O)O)sc2cc1OC + Nc1ccc(C#CCN(C(=O)Cc2ncc(C(F)(F)F)cc2C(F)(F)F)c2ccc(F)cc2)nn1
IC50 (second compound 0.0316 µM): > 10 µM | IC50 (second compound 0.1 µM): > 10 µM | IC50 (second compound 0.316 µM): > 10 µM | IC50 (second compound 1 µM): > 10 µM | IC50 (second compound 3.16 µM): > 10 µM | IC50 (second compound 10 µM): > 10 µM | viability, T/C [1]: 96.1% | viability, T/C [2]: 105% | viability, T/C [3]: 98.3% | viability, T/C [4]: 108% | viability, T/C [5]: 107% | viability, T/C [6]: 100% | viability, T/C [7]: 103% | viability, T/C [8]: 106% | viability, T/C [9]: 98.8% | viability, T/C [10]: 95.7% | viability, T/C [11]: 101% | viability, T/C [12]: 88.8% | viability, T/C [13]: 101% | viability, T/C [14]: 95.3% | viability, T/C [15]: 90% | viability, T/C [16]: 109% | viability, T/C [17]: 97.6% | viability, T/C [18]: 86.3% | viability, T/C [19]: 94.9% | viability, T/C [20]: 95.2% | viability, T/C [21]: 94.4% | viability, T/C [22]: 92.4% | viability, T/C [23]: 103% | viability, T/C [24]: 88.9% | viability, T/C [25]: 91.1% | viability, T/C [26]: 94.5% | viability, T/C [27]: 103% | viability, T/C [28]: 94.1% | viability, T/C [29]: 104% | viability, T/C [30]: 86.4% | viability, T/C [31]: 107% | viability, T/C [32]: 97.3% | viability, T/C [33]: 92.7% | viability, T/C [34]: 96.8% | viability, T/C [35]: 114% | viability, T/C [36]: 96%
